This note sets out measurements from the NIST ThermoML archive (doi:10.1016/j.fluid.2006.05.029).

± gives the expanded uncertainty stated by the source.

By refractive index is commonly meant a measure of how strongly the sample bends light. A word on the mass density: it is mass per unit of volume.

The nature of series [1]: refractive index (Na D-line) (dimensionless). The conditions noted are these: 298.15 K; 101.33 kPa; Liquid; Standard Abbe refractometry.
The conditions of series [2]: 298.15 K, 101.33 kPa, Liquid.

For the compound `COC(=O)OC` [dimethyl carbonate], the refractive index in series [1] is given as 1.3672 ± 0.0008. Moreover, in series [2], the mass density is reported as 1063.33 ± 1.3 kg/m3.
As for `CO` [methanol], in series [1], the refractive index came to 1.3262 ± 0.0007. Also, in series [2] (Pycnometric method), the mass density turned out to be 786.49 ± 0.71 kg/m3.
